Patent US7812042B2, “Pharmaceutical compositions and therapeutic applications for the use of a novel vitamin B12 derivative, N-acetyl-L-cysteinylcobalamin” (priority 2006, dated 2010)
“And” between values parts separate entries of the source, which are not always exact repeats. Equal values may be shown once. Where a name gives a salt, the structure may show the parent alone.

How the values were obtained:
Hsp32 = Hsp32 gene expression in SK-HEP-1 cells (RT-PCR, densitometry); format: cell-based, Human; details: homocysteine 30 μM, folate 30 μM (2 hr), Sn(IX) protoporphyrin 25 μM, quercitin 15 μM
Procedure: (§1) Cells were plated into 6-, 12-, or 24-well cell culture clusters, at 2×10^3, 2×10^5, or 1×10^5 cells per well and incubated until 90% confluent. Treatments were applied as above.
(§2) Following incubation, cells were subjected to mRNA extraction followed by cDNA synthesis for each sample under test. Polymerase chain reaction cDNA templates were prepared for simplex PCR protocol. PCR products were then visualized using a UV Transilluminator and images captured using a Kodak ID gel imaging system. Densitometry and statistical analysis was then performed on each gene expression band image using PSP® v 10.0 running under Windows XP®.
(§3) mRNA extraction was performed using the Quickprep micro mRNA Purification Kit. Following incubation of cells post-treatment, the media was removed from the cells, adherent cells were re-suspended in 0.4 ml extraction buffer and 0.8 ml elution buffer at 65° C. was added.
A reaction mixture was prepared in individual microcentrifuge tubes containing 2 cDNA synthesis beads, 32 μl of the mRNA solution and 1 μl of pd(N)6. This mixture was incubated at 37° C. in a water bath for 60 minutes. After incubation, 27 μl of RNase-free DEPC treated water was added to each tube to make a total volume 60 μl. cDNA samples were prepared in duplicate. Sample 1 was used immediately in RT-PCR protocol. Sample 2 was prepared for qPCR protocol by the addition of 150 μl of 95% ice-cold ethanol and stored at −20° C.
Microcentrifuge tubes from puReTaq™Ready-To-Go™ PCR Beads containing one PCR bead were labeled for each sample required. Added to the PCR bead were 17 μl of RNase-free DEPC treated water, 1 μl sense primer, 1 μl anti-sense primer and 5 μl of the cDNA solution. RT-PCR conditions were as follows: Hsp70 and β-actin, pre-treatment step, 94° C. for 1 minute, followed by denaturing at 92° C. for 1 minute, annealing at 60° C. for 1 minute and extension at 72° C. for 1 minute. Total cycles, 30, post-treatment was then carried out at 72° C. for 10 minutes. For Hsp32, pre-treatment step, 95° C. for 2 minutes, followed by denaturing at 94° C. for 30 seconds, annealing at 58° C. for 1 minute and extension at 72° C. for 1 minute. Total cycles 45, post treatment was then carried out at 72° C. for 10 minutes. Following RT-PCR, samples were stored at −20° C.
Amplification products were separated on a 1.8% agarose gel (m/v) in TAE buffer. The size of the PCR products was determined by comparison to DNA fragments of a well-defined size; therefore, 5 μl of the DNA Ladder was carefully pipetted into the first well of the gel. Successive 10 μl of each PCR sample was then pipetted into subsequent wells on the agarose gel. The gel was connected to the Power Pack and run at 100V for 30 minutes.
Gels were visualised on a UV Transilluminator. Photographs were stored using a Kodak Digital camera system fitted with a UV filter set connected to a PC. Images were then transferred to the Kodak ID gel imaging system. Densitometry was performed on each gene expression band using PSP™ v10 running under Windows XP®.
Experiments were conducted using Hsp32 and Hsp 70 gene expression as the basis for study. […] (all treatments for 2 hours).

SK-HEP-1 cells [1] = details: human, 2 h
Procedure: Cell viability was determined by MTS® assay. […] Cell viability was determined by MTS® assay.

Hsp70 = details: SK-HEP-1; homocysteine 30 μM, folate 30 μM (2 hr), quercitin 15 μM
Procedure: as §1, §2, §3
A reaction mixture was prepared in individual microcentrifuge tubes containing 2 cDNA synthesis beads, 32 μl of the mRNA solution and 1 μl of pd(N)6. This mixture was incubated at 37° C. in a water bath for 60 minutes. After incubation, 27 μl of RNase-free DEPC treated water was added to each tube to make a total volume 60 μl. cDNA samples were prepared in duplicate. Sample 1 was used immediately in RT-PCR protocol.
Microcentrifuge tubes from puReTaq™Ready-To-Go™ PCR Beads containing one PCR bead were labeled for each sample required. Added to the PCR bead were 17 μl of RNase-free DEPC treated water, 1 μl sense primer, 1 μl anti-sense primer and 5 μl of the cDNA solution. RT-PCR conditions were as follows: Hsp70 and β-actin, pre-treatment step, 94° C. for 1 minute, followed by denaturing at 92° C. for 1 minute, annealing at 60° C. for 1 minute and extension at 72° C. for 1 minute. Total cycles, 30, post-treatment was then carried out at 72° C. for 10 minutes. […]
The size of the PCR products was determined by comparison to DNA fragments of a well-defined size; therefore, 5 μl of the DNA Ladder was carefully pipetted into the first well of the gel. […]

SK-HEP-1 cells [2] = test: NACCbl protection from homocysteine with Hsp32/Hsp70 inhibited by Sn(IX) protoporphyrin, quercitin or siRNA (MTS assay); format: cell-based, Human; details: where named, NACCbl 30 μM pre-treatment two hours with/without Sn(IX)PP, quercetin, replicates 1-6, listed as Hcy
Description: siRNAs for human HO-1 were synthesised in 2′-deprotected, duplexed, desalted and purified form by Dharmacon Research Inc., published sequences from Zhang et al., (Zhang, Shan et al. 2004). Human Hsp70 primers were from proprietary sequences, and all control non-targeting primer sequences were also synthesised by Dharmacon Research Inc.
Transfection was optimised using a standard siControl Tox protocol. All transfection experiments included non-targeted siRNA.
Cells were trypsinized and plated into 12- or 96-well plates at cell density of 2×10^5, then incubated for 24 hours until adherent. Complexed siRNA and transfection agent at 100 nm was added directly to each experimental well. Plates were incubated at 37° C. for 32.5 hours for mRNA gene analysis experiments or 72 hours for protein analysis by Western Blot.
Complexed siRNA and transfection agent was added to each well of either 12- or 96-well plates. Cells were then trypsinized and added directly into each test well at cell density of 2×10^5. Plates were incubated at 37° C. for 32.5 hours for mRNA gene analysis experiments or 72 hours for protein analysis by Western Blot.
Hsp32 was inhibited using either Sn (IX) protoporhyrin or using an siRNA which specifically knocks out Hsp32. Hsp70 was inhibited using quercitin or using an siRNA which specifically knocks out Hsp70. In addition, two methods were used to inhibit both Hsp32 and Hsp70: chemically Sn (IX) protoporphyrin plus quercitin was used; and then, directly, a combination of the siRNA for both genes was used simultaneously.

SK-HEP-1 cells [3] = test: Protection of endothelial cells from homocysteine-induced cell death (MTS assay, absorbance at 490 nm; includes comparison of NACCbl, NAC, cyanocobalamin+NAC, free thiols, other cobalamins, folate); format: cell-based, Human; details: for Absorbance at 490 nm (n = 6): replicates Y1-Y6, listed as Hcy
Procedure: The effect of a constant concentration of NACCbl and GSCbl to protect cells against variable concentrations of homocysteine was assessed. […] Cell viability was determined by MTS® assay. Data shown in FIG. 4 are representative of means ±SE of 6 independent samples. FIG. 4 illustrates that NACCbl (▪) and GSCbl (▴) protect endothelial cells from the effect of homocysteine. […] Cell viability was determined by MTS® assay. […] There was a decrease in protection as homocysteine concentration increased, but there was still ˜60% survival at 50 μM homocysteine.
The data was normalized (log 2 and log 10) as shown in FIGS. 16 and 17 and Tables 16 and 17, respectively, below.

SK-HEP-1 cells [4] = test: Protection from apoptosis induced by homocysteine (Caspase-3 activity); format: cell-based, Human; details: 30 μM pre-treatment two hours, then 30 μM homocysteine two hours
Procedure: Caspase 3 is activated when cells undergo apoptosis. Caspase-3 assay is a standard for apoptosis assay. Homocysteine is a known inducer of apoptosis. Cells were cultured in 96-well plates for 24 hours and then treated with reagents under test conditions. Cytotoxic agents, H2O2 and etoposide were added to negative control wells. The assay was performed according to the manufacturer's protocol, as follows: Cells were re-suspended in 100 μl of clear media and 50 μl of Caspase-3 substrate solution was immediately added to each test well. […] Cell viability was determined by MTS® assay. […] Cell viability was determined by MTS® assay.

SK-HEP-1 cells [5] = test: Effect of high concentrations of NACCbl and GSCbl on SK-HEP-1 cells (MTS assay); format: cell-based, Human; design: cell viability (MTS), raw readings (FIG. 13): reference not given here; details: 24 hours; for cell viability (MTS), raw readings (FIG. 13): 3 replicates
[6] = Decomposition of thiolatocobalamins in PBS at 37° C. monitored by UV/Vis spectrophotometry; format: physicochemical; details: decomposition in PBS at 37° C.
Procedure: The decomposition of GSCbl, NACCbl, and HcyCbl in PBS at 37° C. was monitored by UV/Vis spectrophotometry.

methionine synthase = biological target: T1, methionine synthase (Oryctolagus cuniculus, UniProt G1SXW3); details: rabbit spleen extracts; cited from earlier work
T1 construct: methionine synthase activity in rabbit spleen extracts; from tissue; host or cells: rabbit spleen extracts

SK-HEP-1 cells [7] = test: Protection of endothelial cells from H2O2-induced cell death (MTS assay); format: cell-based, Human; details: 2 hours pre-incubation, then 25 μM H2O2 24 hours
Procedure: The effect of increasing concentrations of NACCbl and GSCbl to protect endothelial cells from the effect of H2O2 was assessed. […] Cell viability was determined by MTS® assay. […] Cell viability was determined by MTS® assay. […] Cell viability was determined by MTS® assay.

T1 sequence (G1SXW3 1-1218): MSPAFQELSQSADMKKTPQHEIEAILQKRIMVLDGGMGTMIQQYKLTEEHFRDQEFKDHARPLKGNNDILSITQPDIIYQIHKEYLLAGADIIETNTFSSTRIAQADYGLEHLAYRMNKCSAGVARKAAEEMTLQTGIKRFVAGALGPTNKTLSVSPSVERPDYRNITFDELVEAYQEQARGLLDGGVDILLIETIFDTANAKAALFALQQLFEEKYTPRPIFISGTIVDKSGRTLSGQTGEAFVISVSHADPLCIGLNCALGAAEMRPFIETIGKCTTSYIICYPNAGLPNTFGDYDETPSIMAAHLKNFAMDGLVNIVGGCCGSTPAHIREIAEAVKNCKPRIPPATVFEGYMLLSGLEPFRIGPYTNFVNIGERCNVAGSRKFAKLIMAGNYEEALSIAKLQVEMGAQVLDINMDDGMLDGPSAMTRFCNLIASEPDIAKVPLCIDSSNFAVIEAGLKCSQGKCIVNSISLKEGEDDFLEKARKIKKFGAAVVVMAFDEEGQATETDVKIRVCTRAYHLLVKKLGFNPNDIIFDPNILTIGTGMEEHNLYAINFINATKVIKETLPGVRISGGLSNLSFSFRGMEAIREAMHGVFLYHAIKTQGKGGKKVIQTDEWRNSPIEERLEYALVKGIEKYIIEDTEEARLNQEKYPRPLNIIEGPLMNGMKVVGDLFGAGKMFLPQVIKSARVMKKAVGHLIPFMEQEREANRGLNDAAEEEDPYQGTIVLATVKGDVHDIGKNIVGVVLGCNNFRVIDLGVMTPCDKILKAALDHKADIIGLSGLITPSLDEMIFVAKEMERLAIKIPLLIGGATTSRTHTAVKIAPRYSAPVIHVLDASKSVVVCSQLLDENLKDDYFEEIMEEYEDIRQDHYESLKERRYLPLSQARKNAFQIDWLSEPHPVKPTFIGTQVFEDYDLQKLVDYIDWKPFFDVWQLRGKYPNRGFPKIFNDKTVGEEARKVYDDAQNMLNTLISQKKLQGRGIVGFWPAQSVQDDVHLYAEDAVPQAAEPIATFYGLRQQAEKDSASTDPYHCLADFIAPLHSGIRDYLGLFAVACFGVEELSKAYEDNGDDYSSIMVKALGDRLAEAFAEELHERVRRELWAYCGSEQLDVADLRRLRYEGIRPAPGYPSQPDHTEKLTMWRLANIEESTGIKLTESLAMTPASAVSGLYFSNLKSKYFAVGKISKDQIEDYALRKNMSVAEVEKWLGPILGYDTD

Compound: NC(CCS)C(=O)O (racemic) [Homocysteine, DL-Homocysteine]
- effect on Hsp32 gene expression (Hsp32): increase in expression
- concentration achieving greater than 90% death (SK-HEP-1 cells [1]): 25 µM
- concentration that killed cells (p<0.001) (SK-HEP-1 cells [1]): ≥ 5 µM
- effect on Hsp70 gene expression (Hsp70): increase in expression
- cell viability (MTS), raw readings (FIG. 11) (SK-HEP-1 cells [2]; Hcy 25 (μM) two hours): 0.74
- cell viability (MTS), raw readings (FIG. 11) (SK-HEP-1 cells [2]; Hcy 50 (μM) two hours): 0.77
- cell viability (MTS), raw readings (FIG. 11) (SK-HEP-1 cells [2]; Hcy 100 (μM) two hours): 0.51
- cell viability (MTS), raw readings (FIG. 11) (SK-HEP-1 cells [2]; Hcy 200 (μM) two hours): 0.33 and 0.39
- Absorbance at 490 nm, Mean (n = 6) (SK-HEP-1 cells [3]; Conc. Hcy 200.000 (μM), NACCbl 30 μM, NAC 75 μM): 0.360
- normalized cell viability (MTS), percent, mean of 6 (SK-HEP-1 cells [3]; Conc. Hcy 200.000, NACCbl 30 μM, NAC 75 μM): −0.033
- Absorbance at 490 nm (n = 6) (SK-HEP-1 cells [3]; Conc. of Hcy 25.000, NACCbl 30 μM, NAC 75 μM): 0.740
- Absorbance at 490 nm (n = 6) (SK-HEP-1 cells [3]; Conc. of Hcy 50.000, NACCbl 30 μM, NAC 75 μM): 0.770
- Absorbance at 490 nm (n = 6) (SK-HEP-1 cells [3]; Conc. of Hcy 100.000, NACCbl 30 μM, NAC 75 μM): 0.510
- Absorbance at 490 nm (n = 6) (SK-HEP-1 cells [3]; Conc. of Hcy 200.000, NACCbl 30 μM, NAC 75 μM): 0.330 and 0.390

Compound: C/C1=C2N=C(/C=C3N=C(/C(C)=C4\[N-]C(C(CC(N)=O)C4(C)CCC(=O)NCC(C)OP(=O)([O-])OC4C(CO)OC(n5cnc6cc(C)c(C)cc65)C4O)C4(C)N=C1C(CCC(N)=O)C4(C)CC(N)=O)C(CCC(N)=O)C\3(C)C)C(CCC(N)=O)C/2(C)CC(N)=O.NC(CCC(=O)NC(C[S-])C(=O)NCC(=O)O)C(=O)O.[Co+3] (stereo not drawn) [GSCbl, Glutathionylcobalamin, reference compound]
- effect on Hsp32 gene expression (Hsp32): induce Hsp32
- protection against apoptosis induced by homocysteine (SK-HEP-1 cells [4]): total protection
- survival (SK-HEP-1 cells [3]; 30 μM cobalamin pre-incubation two hours, then 50 μM homocysteine two hours): ~60%
- concentration required for >80% survival protection (SK-HEP-1 cells [3]; 2 hours pre-incubation, then 30 μM homocysteine 24 hours): 50 µM
- protection against homocysteine-induced damage compared with free thiols (SK-HEP-1 cells [3]; Hcy 30 μM, NAC 45, GSH 100, NACCbl 12.5, GSCbl 15 μM, with or without folate 25 μM): superior to the free thiols
- cell death compared with NACCbl (SK-HEP-1 cells [5]; above 0.2 mM concentration): caused greater cell death than NACCbl
- cell viability (MTS), raw readings (FIG. 13) (SK-HEP-1 cells [5]; compound conc. 0.61 (μM scale)): 2.554 and 2.376 and 2.53
- cell viability (MTS), raw readings (FIG. 13) (SK-HEP-1 cells [5]; compound conc. 1.22 (μM scale)): 2.347 and 2.433 and 2.503
- cell viability (MTS), raw readings (FIG. 13) (SK-HEP-1 cells [5]; compound conc. 2.441 (μM scale)): 2.527 and 2.434 and 2.46
- cell viability (MTS), raw readings (FIG. 13) (SK-HEP-1 cells [5]; compound conc. 4.882 (μM scale)): 2.543 and 2.528 and 2.519
- cell viability (MTS), raw readings (FIG. 13) (SK-HEP-1 cells [5]; compound conc. 9.765 (μM scale)): 2.532 and 2.476 and 2.42
- cell viability (MTS), raw readings (FIG. 13) (SK-HEP-1 cells [5]; compound conc. 19.531 (μM scale)): 2.553 and 2.476 and 2.42
- cell viability (MTS), raw readings (FIG. 13) (SK-HEP-1 cells [5]; compound conc. 39.062 (μM scale)): 2.492 and 2.484 and 2.468
- cell viability (MTS), raw readings (FIG. 13) (SK-HEP-1 cells [5]; compound conc. 78.125 (μM scale)): 2.444 and 2.406 and 2.402
- cell viability (MTS), raw readings (FIG. 13) (SK-HEP-1 cells [5]; compound conc. 156.25 (μM scale)): 2.407 and 2.37 and 2.318
- cell viability (MTS), raw readings (FIG. 13) (SK-HEP-1 cells [5]; compound conc. 312.5 (μM scale)): 2.306 and 2.204 and 2.138
- cell viability (MTS), raw readings (FIG. 13) (SK-HEP-1 cells [5]; compound conc. 625 (μM scale)): 2.197 and 1.912 and 1.787
- cell viability (MTS), raw readings (FIG. 13) (SK-HEP-1 cells [5]; compound conc. 1250 (μM scale)): 1.973 and 1.846 and 1.71
- cell viability (MTS), raw readings (FIG. 13) (SK-HEP-1 cells [5]; compound conc. 2500 (μM scale)): 1.775 and 1.81 and 1.896
- cell viability (MTS), raw readings (FIG. 13) (SK-HEP-1 cells [5]; compound conc. 5000 (μM scale)): 1.728 and 1.67 and 1.623
- cell viability (MTS), raw readings (FIG. 13) (SK-HEP-1 cells [5]; compound conc. 10000 (= 10 mM)): 1.322 and 1.342 and 1.366
- t1/2 [6]: No decomposition within 20 hours
- promotion of methionine synthase activity (methionine synthase): more active than other cobalamins in promoting methionine synthase activity
- concentration required to achieve >80% survival (SK-HEP-1 cells [7]): 100 µM

Compound: OO [H2O2, Hydrogen peroxide]
- concentration achieving greater than 90% death (SK-HEP-1 cells [1]): 12.5 µM
- concentration sufficient to kill cultured endothelial cells (P<0.001) (SK-HEP-1 cells [1]): ≥ 3 μm

Compound: CC1=C2N=C(C=C3N=C(C(C)=C4[N-]C(C(CC(N)=O)C4(C)CCC(=O)NCC(C)OP(=O)([O-])OC4C(CO)OC(n5cnc6cc(C)c(C)cc65)C4O)C4(C)N=C1C(CCC(N)=O)C4(C)CC(N)=O)C(CCC(N)=O)C3(C)C)C(CCC(N)=O)C2(C)CC(N)=O.NC(CC[S-])C(=O)O.[Co+3] [HcyCbl, D,L-homocysteinyl-cobalamin]
- t1/2 [6]: 6.6 h

Compound: CC(=O)N[C@@H](CS)C(=O)O [NAC, N-Acetyl-L-Cysteine, reference compound]
- Absorbance at 490 nm, Mean (n = 6) (SK-HEP-1 cells [3]; Conc. Hcy 3.125 (μM), NACCbl 30 μM, NAC 75 μM): 1.897

Compound: O.O.O=c1c(O)c(-c2ccc(O)c(O)c2)oc2cc(O)cc(O)c12 [Quercitin, 2-(3,4-Dihydroxyphenyl)-3,5,7-trihydroxy-4H-1-benzopyran-4-one dihydrate]
- effect on Hsp32 gene expression (Hsp32): does not inhibit Hsp32 gene expression
- effect on Hsp70 gene expression (Hsp70): inhibits Hsp70 gene expression

Compound: C=CC1=C(C)c2cc3[n-]c(cc4[n-]c(cc5nc(cc1n2)C(C)=C5C=C)c(C)c4CCC(=O)O)c(CCC(=O)O)c3C.[Cl-].[Cl-].[Sn+4] [Sn (IX) protoporphyrin, 8,13-Bis(vinyl)-3,7,12,17-tetramethyl-21H,23H-porphine-2,18dipropionic acid tin(IV) dichloride]
- effect on Hsp32 gene expression (Hsp32): inhibited

Compound: CN1c2c(nc(N)[nH]c2=O)NC[C@@H]1CNc1ccc(C(=O)N[C@@H](CCC(=O)O)C(=O)O)cc1 [folate, 5-Methyltetrahydrofolic acid disodium salt]
- effect on Hsp32 gene expression (Hsp32): increase in expression
- protection against apoptosis induced by homocysteine (SK-HEP-1 cells [4]): partial protection
- effect on Hsp70 gene expression (Hsp70): increase in expression
